Measured values reported in article PMC13046274, “Post-translational modifications of GlmR integrate metabolic and stress signals to maintain cell envelope homeostasis in Bacillus subtilis” (PLOS Genetics, 2026).

Assays:
GlmR [1] = molecular target: T1, GlmR (Bacillus subtilis, UniProt O06974, T304A); assay: fluorescence titration of FITC-labeled GlmR T304A, single-site fit; type: binding
T1 construct: gene mgfK; purified recombinant B. subtilis GlmR T304A, FITC-labeled (pET28a, from E. coli)

GlmR [2] = molecular target: T2, GlmR (Bacillus subtilis, UniProt O06974); assay: fluorescence titration of FITC-labeled GlmR, single-site fit; type: binding
T2 construct: gene mgfK; purified recombinant B. subtilis GlmR, FITC-labeled (pET28a, from E. coli)
T2 sequence (O06974 whole entry): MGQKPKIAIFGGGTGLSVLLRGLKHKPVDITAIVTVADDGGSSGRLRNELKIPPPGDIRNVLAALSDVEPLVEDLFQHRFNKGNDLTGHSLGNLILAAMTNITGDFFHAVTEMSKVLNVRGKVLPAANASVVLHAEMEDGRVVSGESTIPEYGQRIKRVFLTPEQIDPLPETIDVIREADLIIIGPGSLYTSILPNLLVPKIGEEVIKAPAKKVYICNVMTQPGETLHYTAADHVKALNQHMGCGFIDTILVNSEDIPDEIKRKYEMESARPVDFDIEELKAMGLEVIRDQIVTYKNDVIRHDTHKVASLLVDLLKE

T1 sequence (O06974 whole entry T304A): as the sequence (O06974 whole entry) above, with T304A counted along it

`CC(=O)N[C@H]1[C@@H](OP(=O)(O)OP(=O)(O)OC[C@H]2O[C@@H](n3ccc(=O)[nH]c3=O)[C@H](O)[C@@H]2O)O[C@H](CO)[C@@H](O)[C@@H]1O` [UDP-GlcNAc] was tested, and the Kd (GlmR [1]) was 1670 ± 310 µM and the Kd (GlmR [2]) was 280 ± 40 µM.
